Reference: the supplement of paper PMC8967900

What was measured:
Experiment in all cases: selective drug sensitivity score (sDSS, relative to normal bone marrow) (sDSS (score)); higher = more potent and effective on the cell line relative to normal bone marrow cells
Details in all cases: 72 h
[1] = test system: HAL-01
[2] = test system: CCRF-HSB2
[3] = test system: REH
[4] = test system: MOLT-14
[5] = test system: HPB-ALL
[6] = test system: MN-60
[7] = test system: MHH-CALL-2
[8] = test system: SEM cells
[9] = test system: KASUMI-9
[10] = test system: MHH-CALL-4
[11] = test system: MOLT-16
[12] = test system: KARPAS-45
[13] = test system: COG-LL-355h
[14] = test system: SUP-B15
[15] = test system: NALL-1
[16] = test system: TANOUE
[17] = test system: P30-OHKUBO
[18] = test system: MOLT-4
[19] = test system: PEER
[20] = test system: KOPN-8
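Also: ALL cell lines in 384-well plates, five doses spanning 10,000-fold, each plate scaled between vehicle and 100 µmol/L benzalkonium chloride controls, sDSS an adapted area-under-curve metric.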

Structure (SMILES) | selective drug sensitivity score [1] | selective drug sensitivity score [2] | selective drug sensitivity score [3] | selective drug sensitivity score [4] | selective drug sensitivity score [5] | selective drug sensitivity score [6] | selective drug sensitivity score [7] | selective drug sensitivity score [8] | selective drug sensitivity score [9] | selective drug sensitivity score [10] | selective drug sensitivity score [11] | selective drug sensitivity score [12] | selective drug sensitivity score [13] | selective drug sensitivity score [14] | selective drug sensitivity score [15] | selective drug sensitivity score [16] | selective drug sensitivity score [17] | selective drug sensitivity score [18] | selective drug sensitivity score [19] | selective drug sensitivity score [20]
CC(C)Oc1ccc(-c2nn([C@@H](C)c3oc4ccc(F)cc4c(=O)c3-c3cccc(F)c3)c3ncnc(N)c23)cc1F [TGR-1202] (top concentration 2500 nM) | 3.04 | -2.06 | -1.76 | -2.56 | -2.56 | -2.56 | -0.06 | -2.56 | 1.44 | -0.06 | -2.46 | -2.36 | 5.14 | 1.14 | 1.24 | -2.56 | 5.14 | -2.56 | -1.86 | 4.54
CN(C(=O)c1ccc(F)cc1C(F)(F)F)C1CCN(c2nnc(-c3ccnn3C)c3ccccc23)CC1 [Taladegib] (top concentration 10000 nM) | 2.78 | -0.92 | 3.58 | -1.12 | 7.08 | -1.12 | 3.18 | -1.12 | -1.12 | -1.12 | 3.88 | -0.92 | 1.48 | 3.78 | -1.12 | 4.98 | -0.02 | -0.12 | 1.88 | 6.68
COc1cc(Nc2ncc(F)c(Nc3ccc4c(n3)NC(=O)C(C)(C)O4)n2)cc(OC)c1OC [Tamatinib] (top concentration 10000 nM) | -2.92 | 4.78 | -2.22 | -4.62 | -5.42 | -5.42 | -4.92 | 12 | 2.68 | -4.62 | -5.42 | -2.92 | -1.52 | -0.62 | -3.82 | -5.32 | 4.38 | -5.42 | -5.42 | -2.12
Nc1cc(F)ccc1NC(=O)c1ccc(CNC(=O)/C=C/c2cccnc2)cc1 [Tucidinostat] (top concentration 10000 nM) | -2.06 | 2.14 | 3.34 | 3.94 | 3.44 | 1.54 | 9.14 | 10.3 | 7.24 | 9.94 | 4.54 | 8.74 | 0.64 | 5.34 | -2.76 | -8.66 | 4.04 | -0.76 | 5.44 | 12.4
CN[C@@H]1C[C@H]2O[C@@](C)([C@@H]1OC)n1c3ccccc3c3c4c(c5c6ccccc6n2c5c31)C(=O)N[C@H]4O [UCN-01] (top concentration 10000 nM) | 2.94 | 9.34 | 5.24 | 6.14 | 6.04 | 0.94 | 7.94 | 7.74 | 9.34 | 8.14 | 8.64 | 6.74 | 4.34 | 2.64 | 0.94 | -9.56 | 7.74 | 3.74 | -0.66 | 10.6
CC(C)Nc1cc(-c2c[nH]c(C(=O)N[C@H](CO)c3cccc(Cl)c3)c2)c(Cl)cn1 [Ulixertinib] (top concentration 10000 nM) | 1.92 | 1.32 | -1.08 | 6.12 | -2.68 | -4.38 | 2.72 | 1.62 | 1.82 | 2.22 | 2.42 | -0.18 | 3.82 | 6.62 | 3.92 | -4.38 | -0.18 | 1.72 | 3.62 | 5.42
Cn1ncc(Cl)c1-c1cc(C(=O)N[C@H](CN)Cc2ccc(F)c(F)c2)oc1Cl [Uprosertib] (top concentration 10000 nM) | 3.9 | 0.7 | 9.6 | 1.1 | -1.4 | -1.4 | 2.1 | 4.5 | 0.7 | 4.6 | 19.1 | 5.6 | 6.8 | -1.4 | -1.4 | -1.2 | 6.5 | 9.3 | 8.5 | 9.1
C=CC(=O)N1CC/C(=C\c2ccc(F)c([N+](=O)[O-])c2)C(=O)/C(=C/c2ccc(F)c([N+](=O)[O-])c2)C1 [VLX1570] (top concentration 10000 nM) | -2.52 | -2.12 | 1.98 | -0.92 | -1.22 | -5.32 | -3.32 | 3.38 | 0.88 | -1.22 | -1.32 | -1.02 | 6.08 | 1.38 | -4.52 | -6.32 | 1.88 | -5.62 | -4.72 | 3.88
C[C@@H]1COC(Nc2ccc3ncnc(Nc4ccc(OCc5nccs5)c(Cl)c4)c3c2)=N1 [Varlitinib] (top concentration 10000 nM) | -0.18 | 0.12 | 7.62 | -0.18 | 1.92 | 0.02 | 5.02 | 2.92 | 4.72 | 0.82 | -0.18 | -0.18 | 0.92 | 6.82 | -0.18 | -0.18 | 4.32 | -0.18 | 0.12 | 8.32
CNC(=O)c1cccc(-c2ccc3c(N4CCOC[C@@H]4C)nc(N4CCOC[C@@H]4C)nc3n2)c1 [Vistusertib] (top concentration 10000 nM) | 5.12 | 5.42 | 9.32 | 2.12 | 1.12 | 2.72 | 9.52 | 4.82 | 11.8 | 5.82 | 5.62 | 5.02 | 6.12 | 10.7 | -3.58 | -2.78 | 11.7 | 3.12 | 5.22 | 19.7
